Reference: ChEMBL document CHEMBL3870326, “Synthesis and structure activity relationships of glycine amide derivatives as novel Vascular Adhesion Protein-1 inhibitors” (Bioorg Med Chem, 2017)

How the values were obtained:
in vitro = conditions: PAMPA, pH 6.5
[1] = Metabolic stability in liver microsomes (unknown origin); type: ADME
[2] = Solubility of the compound; type: physicochemical
[3] = Stability in Wistar rat blood assessed as parent compound remaining at 1 ug/ml after 1 hr by LC-MS/MS analysis; type: ADME, tissue-based; conditions: read-out: Stability
[4] = pampa, pH 6.5, 2 h, 50 µM
[5] = Half life in Wistar rat plasma at 1 mg/kg, iv by LC-MS/MS analysis; type: ADME, organism-based
[6] = Cmax in Wistar rat plasma at 1 mg/kg, po by LC-MS/MS analysis; type: ADME, organism-based; design: dose 1 mg/kg, route oral
[7] = Total clearance in Wistar rat plasma at 1 mg/kg, iv by LC-MS/MS analysis; type: ADME, organism-based
[8] = AUC (0 to 24 hrs) in Wistar rat plasma at 1 mg/kg, po by LC-MS/MS analysis; type: ADME, organism-based; design: dose 1 mg/kg, time < 24 hr, route oral
[9] = AUC (0 to 24 hrs) in Wistar rat plasma at 1 mg/kg, iv by LC-MS/MS analysis; type: ADME, organism-based; design: time < 24 hr, dose 1 mg/kg, route intravenous
[10] = Half life in Wistar rat plasma at 1 mg/kg, po by LC-MS/MS analysis; type: ADME, organism-based
[11] = Volume of distribution at steady state in Wistar rat plasma at 1 mg/kg, iv by LC-MS/MS analysis; type: ADME, organism-based; conditions: read-out: Vdss
[12] = Oral bioavailability in Wistar rat plasma at 1 mg/kg by LC-MS/MS analysis; type: ADME, organism-based

## CCNC(=O)c1ccc(-c2cccc(CN(C)C(=O)CN)c2)cc1.Cl
In vitro
  Papp at 2 h, 50 µM: < 0.2 ×10⁻⁶ cm/s

## Cl.NCC(=O)NCc1cccc(-c2ccccc2)c1
[1]
  Stability: Stable
[2]
  solubility: Soluble
[3]
  remaining at 1 h, 1 ug/ml: 33%
[4]
  Peff: Permeable

## CCN(CC)C(=O)c1ccc(-c2cccc(CN(C)C(=O)CN)c2)cc1.O=C(O)C(=O)O
In vitro
  Papp at 2 h, 50 µM: 3.8 ×10⁻⁶ cm/s

## CN(Cc1cccc(-c2ccc(N3CCOCC3)cc2)c1)C(=O)CN.O=C(O)C(=O)O
[5]
  half-life: 28.2 min
[6]
  Cmax: 73.4 ng/mL
[7]
  clearance: 134 mL/min/kg
[8]
  AUC(0-t) at 24 h: 69.6 ng·h/mL
[9]
  AUC(0-t) at 24 h: 127 ng·h/mL
[10]
  half-life: 34.8 min
[11]
  Vd: 6.06 L/kg
[12]
  bioavailability: 54.9%
In vitro
  Papp at 2 h, 50 µM: 22.1 ×10⁻⁶ cm/s
